According to patent publication US20210292400A1, “METHODS FOR TREATING, PREVENTING AND DETECTING THE PROGNOSIS OF COLORECTAL CANCER” (priority 2018, published 2021):
Entries after “also recorded” stand apart in the source; their conditions may differ.

Tests used:
AA/C1/SB/10C (10C) cells = experiment: Cell proliferation assay, 10C cells; format: cell-based, human; conditions: cells transfected with siRNA; compared to untreated cells; no Fn
Method: (§1) Full length ANXA1 was amplified by PCR using primers listed in Table 1 and cloned in to pcDNA™3.1 (+) Mammalian Expression Vector. Plasmid transfection was performed using lipofectamine 2000 (Invitrogen, CA) following the manufacturer instructions. Control siRNA, ANXA1-specific siRNA and CDH1-specific siRNA were purchased from Invitrogen (CA). The siRNA utilized in these experiments included: Negative control: Invitrogen Stealth RNAi siRNA negative control cat number 12935300; Annexin siRNA: Invitrogen stealth siRNA (cat # ANXA1HSS100502) sequence UAACCAUUAUGGCCUUAUGCAAGGC (SEQ ID NO: 1); and E-cadherin siRNA: Invitrogen stealth siRNA (cat # CDH1HSS101669) sequence UUAAUCUCCAGCCAGUUGGCAGUGU (SEQ ID NO: 2). Lipofectamine RNAi MAX (Invitrogen, CA) was used for the siRNA transfection following manufacturer instructions.
(§2) Cells were seeded in 24 well plates at 5×10^4 cells per well. Cells were untreated or incubated with bacteria at an MOI of 1000:1. Cell numbers were counted at indicated time points using a hemocytometer as previously described (Rubinstein et al. 2013). Each experiment was performed in triplicate and repeated at least three times.

HCT116 cells [1] = experiment: Cell proliferation assay, HCT116 cells; format: cell-based, human; conditions: cells transfected with siRNA; compared to untreated cells; no Fn
Method: as §1
Annexin antibodies utilized in these experiments included: Annexin A1 (Thermo Fisher Scientific, cat #71-3400); Annexin A2 (Thermo Fisher Scientific, cat # PA5-27566); Annexin V (Thermo Fisher Scientific, cat # PA5-27872); Annexin A6 (Thermo Fisher Scientific, cat. #720161); and Annexin All (Thermo Fisher Scientific, cat # PA5-68093).
Cells were seeded in 24 well plates at 5×10^4 cells per well. […] Cell numbers were counted at indicated time points using a hemocytometer as previously described (Rubinstein et al. 2013). […]

DLD1 cells = experiment: Cell proliferation assay, DLD1 cells; format: cell-based, human; conditions: cells transfected with siRNA; compared to untreated cells; no Fn
Method: as §1, §2

SW480 cells = experiment: Cell proliferation assay, SW480 cells; format: cell-based, human; conditions: cells transfected with siRNA; compared to untreated cells; no Fn
Method: as §1, §2

HT29 cells = experiment: Cell proliferation assay, HT29 cells; format: cell-based, human; conditions: cells transfected with siRNA; compared to untreated cells; no Fn
Method: as §1, §2

AA/C1/SB (SB) cells = experiment: Cell proliferation assay, non-tumorigenic SB cells; format: cell-based, human; conditions: cells transfected with siRNA; compared to untreated cells; no Fn
Method: as §1, §2

RKO cells = experiment: Cell proliferation assay, RKO cells; format: cell-based, human; conditions: cells transfected with siRNA; RKO expressed the least Annexin A1
Method: as §1, §2

HCT116 cells [2] = experiment: Tumor xenograft of siRNA-treated HCT116 cells in nude mice; format: in vivo; conditions: HCT116 cells treated with siRNA, injected subcutaneously and bilaterally; vs control siRNA; 7 days post injection
Method: FIG. 1H are graphs and images of xenografted tumor growth in nude mice following subcutaneous and bilateral inoculation of HCT116 cells transfected with control siRNA (left side) or ANXA1-specific siRNA (right side). The tumor volumes were measured after 7 days post injection (left panel, n=4). For each mouse, the tumor resulting from ANXA1 siRNA-treated cells was normalized to that arising from control siRNA-treated cells which was designated to 100%. The line represents the average. *p<0.05 (unpaired t-test). Representative tumors are shown on the right panel top, tumors arising from control siRNA treated cells; bottom, tumors arising from ANXA1-specific siRNA treated cells.
Four-week old nude mice were purchased from Taconic Biosciences (NY, USA). An inoculum of 1×10^7 HCT 116 cells treated with either control or ANXA1-specific siRNA were injected subcutaneously and bilaterally into the nude mice, with control cells injected on the left side and ANXA1-knockdown cells on the right side. On day 7-9 post-injection, the tumor length and width were measured using calipers and tumor volumes were calculated using the following formula: Volume=(width)^2×length/2.

[3] = test system: F. nucleatum 12230 attachment and invasion to 10C cells; experiment: Cell culture attachment and invasion assay of F. nucleatum 12230 to 10C cells; format: cell-based, human; conditions: 10C transfected with siRNA
Method: Fn attachment and invasion to the untreated SB cells were designated as 100%, respectively; all other values were expressed as relative to those obtained with untreated SB. Data are mean values±SEM. *p<0.05, ** p<0.01 and *** p<0.001 (one-way ANOVA).
Data are mean values±SD. The experiment was performed in triplicates and repeated twice. *p<0.05 (student's t-test).
The assay was performed as previously described (Han et al. 2000). Briefly, host cells were seeded in 24 well plates and grown until 80% confluency. Bacteria were added at an MOI 50:1 and incubated for 1 hour at 37° C. in 5% CO2. Following washes with PBS and lysis with water for 20 minutes, serial dilutions of the lysates were plated onto blood agar plates to enumerate the viable bacterial counts. For the invasion assay, bacteria were incubated with the host cells for 3 hours followed by treatment with 300 μg/ml gentamicin and 200 μg/ml metronidazole for 1 hour at 37° C. Following washes with PBS, the cells were lysed with water and intracellular bacterial counts were determined as described above. The levels of attachment and invasion were expressed as the percentage of bacteria recovered following cell lysis relative to the total number of bacteria initially added. Each experiment was performed in triplicate and repeated at least three times.

β-catenin in 10C cells [4] = experiment: Flow cytometry of β-catenin expression after F. nucleatum incubation, 10C cells; format: cell-based, human; conditions: 10C cells transfected with siRNA, then Fn 12230 MOI approximately 20:1
Method: (§3) FIG. 3G are graphs of the results of flow cytometry analysis of β-catenin expression in 10C, HCT 116, and DLD1 cells following transfection with control siRNA (clear bars) or ANXA1-specific siRNA (solid bars) and subsequent incubation with F. nucleatum 12230 at MOI of approximately 20:1 for indicated time periods. The geometric means of cells treated with control siRNA at time 0 was designated as 1. Data are mean values±SD. *** p<0.001. The experiment was performed in duplicates or triplicates and repeated 1-3 times. **p<0.01, ***p<0.001 (two-way ANOVA).
(§4) Approximately a total of 2×10^5 cells were incubated with Fn or purified FadA in 35 mm dish at 37° C. for indicated time periods. After washing with PBS, the cells were incubated with enzyme-free cell dissociation buffer (Thermo Fisher Scientific) for 5 min at 37° C. followed by addition of 1 ml DMEM. The cells were collected and centrifuged at 500 g for 3 minutes. The cell pellet was fixed with 75% cold ethanol and kept at −20° C. The pellet was centrifuged again at 2500 g for 10 minutes and washed with phosphate citrate buffer (200 mM Na2HPO4, 100 mM citric acid, pH 7.4), followed by blocking with PBS containing 2% skim milk at room temperature for 1 hour. […] After washing the cells with PBS, the flow cytometric data were acquired by a BD LSR II flow cytometer and analyzed using Flow Jo software (Tree Star, San Carlos, Calif.).

[5] = test system: β-catenin in HCT116 cells; experiment: Flow cytometry of β-catenin expression after F. nucleatum incubation, HCT116 cells; format: cell-based, human; conditions: HCT116 cells transfected with siRNA, then Fn 12230 MOI approximately 20:1
Method: as §3, §4

β-catenin in DLD1 cells [6] = experiment: Flow cytometry of β-catenin expression after F. nucleatum incubation, DLD1 cells; format: cell-based, human; conditions: DLD1 cells transfected with siRNA, then Fn 12230 MOI approximately 20:1
Method: as §3, §4

β-catenin in 10C cells [7] = experiment: Immuno-staining of β-catenin nuclear translocation, 10C cells; format: cell-based, human; conditions: 10C cells transfected with siRNA, then Fn 12230 MOI about 100:1 for 2 hours
Method: The images were captured with confocal microscope at 800× magnification. −, no bacteria added. Note the increased expression of β-catenin and its nucleus translocation in response to Fn in control siRNA-treated cells, compared to ANXA1 siRNA-treated cells.
(§5) An aliquot of 1×10^3-1×10^5 cells were seeded into Nunc Lab-Tek II Chamber Slide System (Thermo Fisher Scientific) in 400 μl and allowed to grow for 2-5 days till reaching desired confluency. Following washes with DMEM, the cells were incubated with CFSE-labeled Fn or Alexa Fluor™488-conjugated FadAc, mFadA, and BSA (300 μg/ml) for indicated time periods. Following washes of ten times with DMEM, the cells were fixed in PBS containing 4% paraformaldehyde at room temperature for 15 minutes, followed by neutralization in PBS containing 1% glycine at room temperature for 15 minutes. After blocking with PBS containing 2% skim milk and 0.3% Triton X-100 for 1 hour at 4° C., the cells were incubated overnight at 4° C. with goat anti-human E-cadherin polyclonal antibodies (1:400 dilution, R&D Systems, MN) and rabbit anti-AnnexinA1 polyclonal antibodies (1:400 dilution, Invitrogen) or rabbit anti-β-catenin polyclonal IgG (1:400 dilution, Invitrogen) in blocking solution. […]

β-catenin in DLD1 cells [8] = experiment: β-catenin nucleus translocation, DLD1 cells; format: cell-based, human; conditions: Annexin A1 knocked down by siRNA
Method: as §5, with “solution. After washing three times with PBS containing 0.3% Triton X-100, the cells were incubated with Cy3-conjugated donkey anti-goat IgG (1:1000 dilution, Jackson ImmunoResearch, West Grove, Pa.) and Alexa Fluor®680-conjugated donkey anti-rabbit IgG (1:1000 dilution, Invitrogen), washed, and covered in mounting medium containing DAPI (Vector Laboratories, CA, USA).” for “solution.”

Substance: ANXA1-specific siRNA: Invitrogen stealth siRNA cat # ANXA1HSS100502, sequence UAACCAUUAUGGCCUUAUGCAAGGC (SEQ ID NO: 1) (UAACCAUUAUGGCCUUAUGCAAGGC; commercial Invitrogen Stealth siRNA, chemistry not given here)
- growth of 10C cells (AA/C1/SB/10C (10C) cells): inhibited the growth
- growth of HCT116 cells (HCT116 cells [1]): inhibited the growth
- growth of DLD1 cells (DLD1 cells): inhibited the growth
- growth of SW480 cells (SW480 cells): inhibited the growth
- growth of HT29 cells (HT29 cells): inhibited the growth
- growth of non-tumorigenic SB cells (AA/C1/SB (SB) cells): without affecting
- growth of RKO cells (RKO cells): without affecting
- xenografted tumor growth (tumor volume) (HCT116 cells [2]): significantly attenuated tumor growth
- Fn binding (attachment) to 10C cells ([3]; Fn 12230 MOI 50:1, 1 hour): effectively reduced
- Fn invasion of 10C cells ([3]; Fn 12230 MOI 50:1, 3 hours): effectively reduced
- F. nucleatum-mediated activation of β-catenin expression (β-catenin in 10C cells [4]): abolished
- F. nucleatum-mediated activation of β-catenin expression [5]: abolished
- F. nucleatum-mediated activation of β-catenin expression (β-catenin in DLD1 cells [6]): abolished
- nuclear translocation of β-catenin (β-catenin in 10C cells [7]): abolished; also recorded: inhibited
- nucleus translocation of β-catenin (β-catenin in DLD1 cells [8]): abolished
